Consider 14 molecules from PubChem BioAssay AID280 (DTP/NCI, 2004).

The assay deals with nude mice, LOX melanoma ip, survival T/C. Description: NCI In Vivo Anticancer Drug Screen. Data for tumor model Human Amelanotic Melanoma (LOX) (intraperitoneal) in NU/NU BALB/C (nude) mice. The note with it: endpoint: median survival time, higher = longer survival. As for the experimental part:
The antitumor activity of compounds was measured in mice bearing transplantable tumors. Survival or tumor size were measured and the results are expressed as the measurement made in the treated group (T) divided by the measurement made in the vehicle treated control group (C). The tumor model used in this assay is Human Amelanotic Melanoma (LOX) (intraperitoneal) in NU/NU BALB/C (nude) mice

[1] abbreviates: dose: 50.0 mg/kg/injection, schedule: Q04DX003 (ip), vehicle: saline with Tween-80.
The mark [2] stands for this setting: dose: 100.0 mg/kg/injection, schedule: Q04DX003 (ip), vehicle: saline with Tween-80.
The mark [3] stands for this setting: dose: 75.0 mg/kg/injection, schedule: Q04DX003 (ip), vehicle: saline with Tween-80.
Setting [4] is: dose: 150.0 mg/kg/injection, schedule: Q04DX003 (ip), vehicle: saline with Tween-80.
The mark [5] stands for this setting: dose: 600.0 mg/kg/injection, schedule: Q04DX003 (ip), vehicle: saline with Tween-80.

Values joined by “and” are separate entries in the source; they are usually repeats but may differ in a detail not shown here. Identical values can stand only once. Inconclusive results and toxic doses are left out.

Turning to `Cc1ccc(C(=Nc2ccccc2)N=P(c2ccccc2)(c2ccccc2)c2ccccc2)cc1`, the T/C is 106 % of control (dose: 12.5 mg/kg/injection, schedule: Q04DX003 (ip), vehicle: saline with Tween-80); 115 % of control (dose: 25.0 mg/kg/injection, schedule: Q04DX003 (ip), vehicle: saline with Tween-80); 119 % of control under setting [1]; 104 % of control under setting [2].
Regarding `CC(CNC(=O)C12CC3CC(CC(C3)C1)C2)NC(=O)C12CC3CC(CC(C3)C1)C2` (configuration not stated), the T/C was 101 % of control (dose: 25.0 mg/kg/injection, schedule: Q04DX003 (ip), vehicle: DMSO); 107 % of control (dose: 50.0 mg/kg/injection, schedule: Q04DX003 (ip), vehicle: DMSO); 101 % of control (dose: 100.0 mg/kg/injection, schedule: Q04DX003 (ip), vehicle: DMSO); 102 % of control (dose: 200.0 mg/kg/injection, schedule: Q04DX003 (ip), vehicle: DMSO).
On to `O=c1[nH]cc(F)c(=O)[nH]1`, for which the T/C is 123 % of control (dose: 5.0 mg/kg/injection, schedule: Q01DX005 (ip), vehicle: saline); 115 % of control (dose: 5.0 mg/kg/injection, schedule: Q01DX015 (ip), vehicle: saline); 224 % of control (dose: 10.0 mg/kg/injection, schedule: Q01DX015 (ip), vehicle: saline); 163 % of control (dose: 10.0 mg/kg/injection, schedule: Q04DX003 (ip), vehicle: saline); 108 % of control (dose: 15.0 mg/kg/injection, schedule: Q04DX003 (ip), vehicle: saline); 166 % of control (dose: 20.0 mg/kg/injection, schedule: Q01DX005 (ip), vehicle: saline). The T/C (dose: 20.0 mg/kg/injection, schedule: Q01DX015 (ip), vehicle: saline) is 211 % of control; the T/C (dose: 20.0 mg/kg/injection, schedule: Q04DX003 (ip), vehicle: saline) is 191 % of control; the T/C (dose: 30.0 mg/kg/injection, schedule: Q04DX003 (ip), vehicle: saline) was 179 % of control; the T/C (dose: 40.0 mg/kg/injection, schedule: Q01DX005 (ip), vehicle: saline) was 160 % of control; the T/C (dose: 60.0 mg/kg/injection, schedule: Q04DX003 (ip), vehicle: saline) is 185 % of control.
For the molecule `C/C(=N\NC(=S)N1CCC1)c1ccccn1`, the T/C is 99 % of control (dose: 3.13 mg/kg/injection, schedule: Q04DX003 (ip), vehicle: other); 96 % of control (dose: 6.25 mg/kg/injection, schedule: Q04DX003 (ip), vehicle: other); 95 % of control (dose: 12.5 mg/kg/injection, schedule: Q04DX003 (ip), vehicle: other); 100 % of control (dose: 25.0 mg/kg/injection, schedule: Q04DX003 (ip), vehicle: other).
For the molecule `CC[C@@]1(O)C(=O)OCc2c1cc1n(c2=O)Cc2cc3c(N)cccc3nc2-1`, the T/C is 213 % of control (dose: 0.5 mg/kg/injection, schedule: Q04DX003 (ip), vehicle: saline with Tween-80); 314 % of control (dose: 0.86 mg/kg/injection, schedule: Q04DX003 (ip), vehicle: saline with Tween-80); 327 % of control (dose: 1.0 mg/kg/injection, schedule: Q04DX003 (ip), vehicle: saline with Tween-80); 314 % of control (dose: 1.44 mg/kg/injection, schedule: Q04DX003 (ip), vehicle: saline with Tween-80); 327 % of control (dose: 2.0 mg/kg/injection, schedule: Q04DX003 (ip), vehicle: saline with Tween-80); 314 % of control (dose: 2.4 mg/kg/injection, schedule: Q04DX003 (ip), vehicle: saline with Tween-80). Besides, the T/C (dose: 4.0 mg/kg/injection, schedule: Q04DX003 (ip), vehicle: saline with Tween-80) is 314 % of control and 327 % of control.
Take `c1ccc([Te][Te]c2ccccc2)cc1`: the T/C was 102 % of control (dose: 37.5 mg/kg/injection, schedule: Q04DX003 (ip), vehicle: saline with Tween-80); 92 % of control under setting [3]; 112 % of control under setting [4].
Regarding `O=NNc1ccc(Cl)cn1`, the T/C (dose: 2.5 mg/kg/injection, schedule: Q04DX003 (ip), vehicle: water) was 105 % of control; the T/C (dose: 3.13 mg/kg/injection, schedule: Q04DX003 (ip), vehicle: water) was 111 % of control; the T/C (dose: 5.0 mg/kg/injection, schedule: Q04DX003 (ip), vehicle: water) was 101 % of control; the T/C (dose: 6.25 mg/kg/injection, schedule: Q04DX003 (ip), vehicle: water) is 112 % of control; the T/C (dose: 10.0 mg/kg/injection, schedule: Q04DX003 (ip), vehicle: water) was 118 % of control; the T/C (dose: 20.0 mg/kg/injection, schedule: Q04DX003 (ip), vehicle: water) was 124 % of control.
In the case of `NC(=O)c1[nH]cnc1O`, the T/C was 95 % of control and 98 % of control under setting [1]; 116 % of control and 100 % of control under setting [2]; 104 % of control and 111 % of control (dose: 200.0 mg/kg/injection, schedule: Q04DX003 (ip), vehicle: saline with Tween-80); 96 % of control (dose: 400.0 mg/kg/injection, schedule: Q04DX003 (ip), vehicle: saline with Tween-80); 88 % of control (dose: 800.0 mg/kg/injection, schedule: Q04DX003 (ip), vehicle: saline with Tween-80).
In the case of `CC1Oc2cc3c(-c4c(O)cc(O)c5c(O)c6c(cc45)OC(C)C(C)C6=O)c(O)cc(O)c3c(O)c2C(=O)C1C` (configuration not stated), the T/C by setting is: (dose: 1.0 mg/kg/injection, schedule: Q04DX003 (ip), vehicle: suspension in saline) 124 % of control; (dose: 4.0 mg/kg/injection, schedule: Q04DX003 (ip), vehicle: suspension in saline) 152 % of control.
As to `CCCCCCCC(=O)O[C@H]1[C@H]2[C@@H](CC1(C)C)C(=O)[C@]13O[C@H]1C(=O)[C@]1(CO1)[C@]23C`, the T/C is 115 % of control (dose: 2.5 mg/kg/injection, schedule: Q04DX003 (ip), vehicle: saline with Tween-80); 92 % of control (dose: 5.0 mg/kg/injection, schedule: Q04DX003 (ip), vehicle: saline with Tween-80); 90 % of control (dose: 10.0 mg/kg/injection, schedule: Q04DX003 (ip), vehicle: saline with Tween-80); 103 % of control (dose: 20.0 mg/kg/injection, schedule: Q04DX003 (ip), vehicle: saline with Tween-80); 92 % of control (dose: 40.0 mg/kg/injection, schedule: Q04DX003 (ip), vehicle: saline with Tween-80).
With `NC(=S)N/N=C/c1cc(=O)c2cc(Cl)ccc2o1`, the T/C was 107 % of control (dose: 75.0 mg/kg/injection, schedule: Q04DX003 (ip), vehicle: other); 101 % of control (dose: 150.0 mg/kg/injection, schedule: Q04DX003 (ip), vehicle: other); 100 % of control (dose: 300.0 mg/kg/injection, schedule: Q04DX003 (ip), vehicle: other); 105 % of control (dose: 600.0 mg/kg/injection, schedule: Q04DX003 (ip), vehicle: other); 101 % of control (dose: 1200.0 mg/kg/injection, schedule: Q04DX003 (ip), vehicle: other).
On to `O=c1cc(-c2ccccc2)[nH]c2c1CCCC2`, for which the T/C under setting [3] was 115 % of control; the T/C under setting [4] is 115 % of control; the T/C (dose: 259.0 mg/kg/injection, schedule: Q04DX003 (ip), vehicle: saline with Tween-80) is 106 % of control; the T/C (dose: 300.0 mg/kg/injection, schedule: Q04DX003 (ip), vehicle: saline with Tween-80) was 114 % of control; the T/C (dose: 432.0 mg/kg/injection, schedule: Q04DX003 (ip), vehicle: saline with Tween-80) was 100 % of control; the T/C under setting [5] is 124 % of control. Further, for the setting “dose: 720.0 mg/kg/injection, schedule: Q04DX003 (ip), vehicle: saline with Tween-80”, the T/C is 114 % of control.
Regarding `O=[N+]([O-])c1ccc([I+]c2ccccc2)cc1`, the T/C is 121 % of control (dose: 9.38 mg/kg/injection, schedule: Q04DX003 (ip), vehicle: Klucel (hydroxypropylcellulose) (HPC)); 115 % of control (dose: 16.2 mg/kg/injection, schedule: Q04DX003 (ip), vehicle: Klucel (hydroxypropylcellulose) (HPC)); 114 % of control and 101 % of control (dose: 27.0 mg/kg/injection, schedule: Q04DX003 (ip), vehicle: Klucel (hydroxypropylcellulose) (HPC)); 108 % of control (dose: 37.5 mg/kg/injection, schedule: Q04DX003 (ip), vehicle: Klucel (hydroxypropylcellulose) (HPC)); 105 % of control and 120 % of control (dose: 45.0 mg/kg/injection, schedule: Q04DX003 (ip), vehicle: Klucel (hydroxypropylcellulose) (HPC)); 93 % of control (dose: 75.0 mg/kg/injection, schedule: Q04DX003 (ip), vehicle: Klucel (hydroxypropylcellulose) (HPC)).
Turning to `COc1cc(C(C)c2cc3c(cc2OCCO)OCO3)cc(OC)c1OC` (configuration not stated), the T/C is 114 % of control under setting [3], 94 % of control under setting [4] and 152 % of control under setting [5].
